Test results from patent publication US9777003B2, “Tricyclic heterocycles as bet protein inhibitors” (Incyte Corporation, priority 2013, dated 2017).

Columns and labels:
BRD4-BD2 = BRD4-BD2 (Homo sapiens (Human), UniProt O60885); test: BRD4 AlphaScreen assay, BRD4-BD2; format: binding; conditions: biotin-labeled tetra-acetylated histone H4 peptide, 75 min, room temperature, read-out: BRD4 BD-2 enzyme IC50
Procedure, shortened: (§1)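 Displacement of 50 nM biotinylated tetra-acetylated H4 peptide (H4Ac4) from BRD4-BD1 (3.8 nM) or BRD4-BD2 (20 nM) in HEPES pH 7.4, 100 mM NaCl, CHAPS, BSA; 75 min at room temperature. Streptavidin donor/GSH acceptor beads were added for a further 75 min in the dark; IC50 from percent control activity versus log concentration.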

BRD4-BD1 = BRD4-BD1 (Homo sapiens (Human), UniProt O60885); test: BRD4 AlphaScreen assay, BRD4-BD1; format: binding; conditions: biotin-labeled tetra-acetylated histone H4 peptide, 75 min, room temperature, read-out: BRD4 BD-1 enzyme IC50
Procedure, shortened: as §1

Structure (SMILES)	IC50 (BRD4-BD2)	IC50 (BRD4-BD1)
Cc1cc2c(cc(Nc3ccccn3)c3nnc(C)n32)n1Cc1ccccc1 [Example 240, 6-benzyl-1,7-Dimethyl-N-(pyridin-2-yl)-6H-pyrrolo[2,3-e][1,2,4]triazolo[4,3-a]pyridin-4-amine]	≤ 100 nM	≤ 100 nM
Cc1cc2c(cc(NCC3CCN(C(=O)OC(C)(C)C)CC3)c3nnc(C)n32)n1Cc1ccccc1 [Example 242, tert-Butyl 4-((6-benzyl-1,7-dimethyl-6H-pyrrolo[2,3-e][1,2,4]triazolo[4,3-a]pyridin-4-ylamino)methyl)piperidine-1-carboxylate]	≤ 100 nM	100 to 1000 nM
Cc1cc2c(cc(NCCN(C)C)c3nnc(C)n32)n1Cc1ccccc1 [Example 246, N1-(6-Benzyl-1,7-dimethyl-6H-pyrrolo[2,3-e][1,2,4]triazolo[4,3-a]pyridin-4-yl)-N2,N2-dimethylethane-1,2-diamine]	≤ 100 nM	≤ 100 nM
Cc1cc2c(cc(N[C@H]3C[C@H](O)C3)c3nnc(C)n32)n1Cc1ccccc1 [Example 247, trans-3-(6-Benzyl-1,7-dimethyl-6H-pyrrolo[2,3-e][1,2,4]triazolo[4,3-a]pyridin-4-ylamino)cyclobutanol]	≤ 100 nM	≤ 100 nM
Cc1cc2c(cc(NC(=O)OC(C)(C)C)c3nnc(C)n32)n1Cc1ccccc1 [Example 248, tert-Butyl 6-benzy1-1,7-dimethyl-6H-pyrrolo[2,3-e][1,2,4]triazolo[4,3-a]pyridin-4-ylcarbamate]	≤ 100 nM	100 to 1000 nM
Cc1cc2c(cc(NC(=O)N(C)C)c3nnc(C)n32)n1Cc1ccccc1 [Example 251, 3-(6-Benzyl-1,7-dimethyl-6H-pyrrolo[2,3-e][1,2,4]triazolo[4,3-a]pyridin-4-yl)-1,1-dimethylurea]	≤ 100 nM	100 to 1000 nM
Cc1cc2c(cc(Nc3ncc[nH]3)c3nnc(C)n32)n1Cc1ccccc1 [Example 253, 6-Benzyl-N-(1H-imidazol-2-yl)-1,7-dimethyl-6H-pyrrolo[2,3-e][1,2,4]triazolo[4,3-a]pyridin-4-amine]	≤ 100 nM	≤ 100 nM
Cc1cc2c(cc(Nc3ccncc3)c3nnc(C)n32)n1Cc1ccccc1 [Example 255, 6-Benzyl-1,7-dimethyl-N-(pyridin-4-yl)-6H-pyrrolo[2,3-e][1,2,4]triazolo[4,3-a]pyridin-4-amine]	≤ 100 nM	100 to 1000 nM
CCNc1cc2c(cc(C)n2Cc2ccccc2)n2c(C)nnc12 [Example 259, 6-Benzyl-N-ethyl-1,7-dimethyl-6H-pyrrolo[2,3-e][1,2,4]triazolo[4,3-a]pyridin-4-amine]	≤ 100 nM	≤ 100 nM
Cc1cc2c(cc(Nc3ccccc3)c3nnc(C)n32)n1Cc1ccccc1 [Example 260, 6-Benzyl-1,7-dimethyl-N-phenyl-6H-pyrrolo[2,3-e][1,2,4]triazolo[4,3-a]pyridin-4-amine]	≤ 100 nM	≤ 100 nM
CNc1cc2c(cc(C)n2Cc2ccccc2)n2c(C)nnc12 [Example 261, 6-Benzyl-N,1,7-trimethyl-6H-pyrrolo[2,3-e][1,2,4]triazolo[4,3-a]pyridin-4-amine]	≤ 100 nM	≤ 100 nM
CCCNc1cc2c(cc(C)n2Cc2ccccc2)n2c(C)nnc12 [Example 262, 6-Benzyl-N-propyl-1,7-dimethyl-6H-pyrrolo[2,3-e][1,2,4]triazolo[4,3-a]pyridin-4-amine]	≤ 100 nM	≤ 100 nM

More lines, now with the values ahead:

IC50 (BRD4-BD2)	IC50 (BRD4-BD1)	Structure (SMILES)
≤ 100 nM	100 to 1000 nM	Cc1cc2c(cc(NCC3CCC3)c3nnc(C)n32)n1Cc1ccccc1 [Example 241, 6-Benzyl-N-(cyclobutylmethyl)-1,7-dimethyl-6H-pyrrolo[2,3-e][1,2,4]triazolo[4,3-a]pyridin-4-amine]
≤ 100 nM	100 to 1000 nM	Cc1cc2c(cc(NCC3CN(C(=O)OC(C)(C)C)C3)c3nnc(C)n32)n1Cc1ccccc1 [Example 243, tert-Butyl 3-((6-benzyl-1,7-dimethyl-6H-pyrrolo[2,3-e][1,2,4]triazolo[4,3-a]pyridin-4-ylamino)methyl)azetidine-1-carboxylate]
≤ 100 nM	≤ 100 nM	Cc1cc2c(cc(NC3CN(C(=O)OC(C)(C)C)C3)c3nnc(C)n32)n1Cc1ccccc1 [Example 244, tert-Butyl 3-(6-benzyl-1,7-dimethyl-6H-pyrrolo[2,3-e][1,2,4]triazolo[4,3-a]pyridin-4-ylamino)azetidine-1-carboxylate]
≤ 100 nM	≤ 100 nM	Cc1cc2c(cc(NCCCN(C)C)c3nnc(C)n32)n1Cc1ccccc1 [Example 245, N1-(6-Benzyl-1,7-dimethyl-6H-pyrrolo[2,3-e][1,2,4]triazolo[4,3-a]pyridin-4-yl)-N3,N3-dimethylpropane-1,3-diamine]
≤ 100 nM	≤ 100 nM	CCNC(=O)Nc1cc2c(cc(C)n2Cc2ccccc2)n2c(C)nnc12 [Example 249, 1-(6-Benzyl-1,7-dimethyl-6H-pyrrolo[2,3-e][1,2,4]triazolo[4,3-a]pyridin-4-yl)-3-ethylurea]
≤ 100 nM	≤ 100 nM	Cc1cc2c(cc(NC(=O)NC(C)C)c3nnc(C)n32)n1Cc1ccccc1 [Example 250, 1-(6-Benzyl-1,7-dimethyl-6H-pyrrolo[2,3-e][1,2,4]triazolo[4,3-a]pyridin-4-yl)-3-isopropylurea]
≤ 100 nM	≤ 100 nM	Cc1cc2c(cc(NC(N)=O)c3nnc(C)n32)n1Cc1ccccc1 [Example 252, 1-(6-Benzyl-1,7-dimethyl-6H-pyrrolo[2,3-e][1,24]triazolo[4,3-a]pyridin-4-yl)urea]
≤ 100 nM	≤ 100 nM	Cc1cc2c(cc(NC(N)=O)c3nnc(C)n32)n1Cc1c(F)cccc1F [Example 254, 1-(6-(2,6-Difluorobenzyl)-1,7-dimethyl-6H-pyrrolo[2,3-e][1,2,4]triazolo[4,3-a]pyridin-4-yl)urea]
≤ 100 nM	≤ 100 nM	Cc1cc2c(cc(Nc3cccnc3)c3nnc(C)n32)n1Cc1ccccc1 [Example 256, 6-Benzyl-1,7-dimethyl-N-(pyridin-3-yl)-6H-pyrrolo[2,3-e][1,2,4]triazolo[4,3-a]pyridin-4-amine]
≤ 100 nM	≤ 100 nM	Cc1cc2c(cc(NCCCN)c3nnc(C)n32)n1Cc1ccccc1 [Example 257, N1-(6-Benzyl-1,7-dimethyl-6H-pyrrolo[2,3-e][1,2,4]triazolo[4,3-a]pyridin-4-yl)propane-1,3-diamine]
≤ 100 nM	≤ 100 nM	Cc1cc2c(cc(NCCN)c3nnc(C)n32)n1Cc1ccccc1 [Example 258, N1-(6-benzyl-1,7-dimethyl-6H-pyrrolo[2,3-e][1,2,4]triazolo[4,3-a]pyridin-4-yl)ethane-1,2-diamine]
≤ 100 nM	≤ 100 nM	Cc1cc2c(cc(NC(C)C)c3nnc(C)n32)n1Cc1ccccc1 [Example 263, 6-Benzyl-N-isopropyl-1,7-dimethyl-6H-pyrrolo[2,3-e][1,2,4]triazolo[4,3-a]pyridin-4-amine]
100 to 1000 nM	100 to 1000 nM	COc1cc2c(cc(C)n2Cc2ccccc2)n2c(C)nnc12 [Example 264, 6-Benzyl-4-methoxy-1,7-dimethyl-6H-pyrrolo[2,3-e][1,2,4]triazolo[4,3-a]pyridine]
≤ 100 nM	≤ 100 nM	CC(=O)Nc1cc2c(cc(C)n2Cc2ccccc2)n2c(C)nnc12 [Example 266, N-(6-Benzyl-1,7-dimethyl-6H-pyrrolo[2,3-e][1,2,4]triazolo[4,3-a]pyridin-4-yl)acetamide]
